These results are taken from US8288418B2, “Benzimidazole derivatives and their use for modulating the GABAA receptor complex” (Neurosearch A/S, priority 2006, dated 2012).

Each structure is given as a SMILES string. pIC50: −log10 of the molar value.

In data set [1] the target is GABAA receptor complex, benzodiazepine modulatory unit (cerebral cortex membranes). Kind of data set: In vitro inhibition of 3H-flunitrazepam (3H-FNM) binding. Particulars: inhibition of specific binding of 3H-FNM (1 nM), cerebral cortex membranes of male Wistar rats, 40 min at 2° C. Further details: species or system rat. As to the method:
In vitro Inhibition of ^3H-flunitrazepam (^3H-FNM) Binding
The GABA recognition site and the benzodiazepine modulatory unit can selectively be labelled with ^3H-flunitrazepam.
Preparations are performed at 0-4° C. unless otherwise indicated. Cerebral cortex from male Wistar rats (150-200 g) is homogenised for 5-10 sec in 20 ml Tris-HCl (30 mM, pH 7.4) using an Ultra-Turrax homogeniser. The suspension is centrifuged at 27,000×g for 15 min and the pellet is washed three times with buffer (centrifuged at 27,000×g for 10 min). The washed pellet is homogenized in 20 ml of buffer and incubated on a water bath (37° C.) for 30 min to remove endogenous GABA and then centrifuged for 10 min at 27,000×g. The pellet is then homogenized in buffer and centrifuged for 10 min at 27,000×g. The final pellet is resuspended in 30 ml buffer and the preparation is frozen and stored at −20° C.
The membrane preparation is thawed and centrifuged at 2° C. for 10 min at 27,000×g. The pellet is washed twice with 20 ml 50 mM Tris-citrate, pH 7.1 using an Ultra-Turrax homogeniser and centrifuged for 10 min at 27,000×g. The final pellet is resuspended in 50 mM Tris-citrate, pH 7.1 (500 ml buffer per g of original tissue), and then used for binding assays. Aliquots of 0.5 ml tissue are added to 25 μl of test solution and 25 μl of ^3H-FNM (1 nM, final concentration), mixed and incubated for 40 min at 2° C. Non-specific binding is determined using Clonazepam (1 μM, final concentration). After incubation the samples are added 5 ml of ice-cold buffer and poured directly onto Whatman GF/C glass fibre filters under suction and immediately washed with 5 ml ice-cold buffer. The amount of radioactivity on the filters is determined by conventional liquid scintillation counting. Specific binding is total binding minus non-specific binding.
25-75% inhibition of specific binding must be obtained, before calculation of an IC50.
The test value will be given as IC50 (the concentration (μM) of the test substance which inhibits the specific binding of ^3H-FNM by 50%).
Co is specific binding in control assays, and
Cx is the specific binding in the test assay.
(The calculations assume normal mass-action kinetics).

The molecule `CC(C)(O)c1ccc2c(c1)ncn2-c1cccc(-c2ccccc2C#N)c1` [Compound 9aac, 3′-[5-(1-Hydroxy-1-methyl-ethyl)-benzoimidazol-1-yl]-biphenyl-2-carbonitrile] showed a negative logarithm of the IC50 (pIC50) in data set [1] of 9.19. `CC(C)OC(=O)c1ccc2c(c1)ncn2-c1cccc(-c2cccnc2Cl)c1` [Compound 19, 1-[3-(2-Chloro-pyridin-3-yl)-phenyl]-1H-benzoimidazole-5-carboxylic acid isopropyl ester] gave a melting point of 147 to 150 °C. For the molecule `CC(O)c1ccc2c(c1)ncn2-c1cccc(-c2cccnc2O)c1` (stereo not shown) [Compound 16, 3-{3-[5-(1-Hydroxy-ethyl)-benzoimidazol-1-yl]-phenyl}-pyridin-2-ol], the melting point lay within 133 to 137 °C. On to `CC(C)(O)c1ccc2c(c1)ncn2-c1cccc(-c2cccnc2F)c1` [Compound 9ada, 2-{1-[3-(2-Fluoro-pyridin-3-yl)-phenyl]-1H-benzoimidazol-5-yl}-propan-2-ol], for which the pIC50 in data set [1] was 8.40. Same read-out and setting: under `N=C(NO)c1ccc2c(c1)ncn2-c1cccc(-c2ccccc2Cl)c1` [Compound 12ha, 1-(2′-Chloro-biphenyl-3-yl)-N-hydroxy-1H-benzoimidazole-5-carboxamidine] stands 9.02; under `C[C@@H](O)c1ccc2c(c1)ncn2-c1cccc(-c2cccnc2F)c1` [Compound 9aba, (R)-1-{1-[3-(2-Fluoro-pyridin-3-yl)-phenyl]-1H-benzoimidazol-5-yl}-ethanol], 8.21. Still for that read-out and setting: under `COc1ccccc1-c1cccc(-n2cnc3cc(-c4cc[nH]n4)ccc32)c1` [Compound 9ak, 5-(1H-3-Pyrazolyl)-1-(2′-methoxy-biphenyl-3-yl)-1H-benzoimidazole] stands 7.68.

In turn, `CC(=NO)c1ccc2c(c1)ncn2-c1cccc(-c2cccnc2O)c1` [Compound 15, 1-{1-[3-(2-Hydroxy-pyridin-3-yl)-phenyl]-1H-benzoimidazol-5-yl}-ethanone oxime] registered a melting point of 220 to 223 °C. As for `COc1cc(F)ccc1-c1cccc(-n2cnc3cc(C(F)(F)F)ccc32)c1` [Compound 9a, 1-(4′-Fluoro-2′-methoxy-biphenyl-3-yl)-5-trifluoromethyl-1H-benzoimidazole], the melting point came to 95.5 °C. This molecule gave a negative-log IC50 (pIC50) in data set [1] of 8.85.

As usually defined, the pIC50 is −log10 of the IC50, conventionally taken in molar units. A lower pIC50 goes with a large IC50. For orientation: melting point means the temperature of the solid-liquid transition.
